Experimental data published in PMC4720136 (Journal of the American Chemical Society, 2015).

Biological target: EncM (Streptomyces maritimus, UniProt Q9KHK2)
Assay: stopped-flow flavin reduction at […] nm, hyperbolic fit of kobs
Format: biochemical
Conditions: read-out: apparent Kd; EncM-Flox (oxidized, inactive flavin form), anaerobic, 4 °C, 0.1 M Tris-H2SO4 pH 7.5, 10% glycerol

Compound	Kd [mM]
NC(=O)C1=CN([C@@H]2O[C@H](COP(=O)(O)OP(=O)(O)OC[C@H]3O[C@@H](n4cnc5c(N)ncnc54)[C@H](O)[C@@H]3O)[C@@H](O)[C@H]2O)C=CC1 [NADH]	9.3 ± 0.3
NC(=O)C1=CN([C@@H]2O[C@H](COP(=O)(O)OP(=O)(O)OC[C@H]3O[C@@H](n4cnc5c(N)ncnc54)[C@H](OP(=O)(O)O)[C@@H]3O)[C@@H](O)[C@H]2O)C=CC1 [NADPH]	0.26 ± 0.01
